Source: US9149041B2, “Stabilized and activated bromine solutions as a biocide and as an antifouling agent” (Bromine Compounds Ltd., priority 2009, dated 2015)

Assays:
Type in all cases: cell-based
[1] = test system: Inoculum of bacteria (Activated sludge taken from Domestic Waste Water treatment Plant—Haifa); assay: Microbial efficacy (% bacteria killed) at different TOC loading, activated sludge inoculum (Example 60); details: 30 min, pH 7
Method: (§1) Inoculum of bacteria (Activated sludge taken from Domestic Waste Water treatment Plant—Haifa).
(§2) R2A agar for general counting.
(§3) Tryptone, in amounts 0.025, 0.119, and 0.239 g solid tryptone respectively, was weighed and dissolved in 1 liter of buffer.
Neutralization solution (NaHSO4). […]
1) 1 ml of inoculum was added to tryptone solutions (placed in 3 Erlenmeyers, 100 ml each, with different concentrations of TOC-0, 10 and 50 ppm).
(§4) 2) 1 ml of each sample was inoculated on R2A agar (pour plate method). The result stands for the bacteria count at zero time.
3) For each of the tryptone concentrations (0, 10, 50 ppm TOC) an inoculum of bacteria (1 ml) and the appropriate biocide concentration were added.
(§5) 4) After 30 min. of shaking (100 rpm), 1 ml of each sample was transferred to a tube filled with 9 ml of the neutralization solution. An aliquot of 1 ml was taken from this solution and added to another tube containing 9 ml of buffer solution. The solution was mixed under vortex. This operation was repeated for 4 more times.
(§6) 5) 1 ml from the two lowest dilutions was inoculated on a R2A agar (by the pour plate method).
(§7) 6) After the plates were incubated at 25° C. for 5-7 days, the bacteria count was recorded.

[2] = test system: Pseudomonas aeruginosa (ATCC 15442) entrapped in alginate gel beads; assay: Biocidal activity against simulated biofilm systems (alginate beads), Example 60
Method: The biofilm simulation was created by entrapping bacteria in alginate gel beads. […] Buffer phosphate at pH 7.2 was used to scrap off the bacteria from the agar plate and to create a suspension. The bacterial suspension was mixed with an equal volume of an aqueous 4% sodium alginate solution, to make a final 2% alginate solution. The alginate and bacterial slurry were placed in a 50 ml syringe attached to a gauge needle (22), connected to a compressed air tank, allowing the syringe to be pressurized. At 20 psig pressure a stream of small drops was forced out and dropped into a stirred solution of 50 mM CaCl2. The Ca^+2 hardened the alginate, and semi solid beads with entrapped bacterial cells were formed. The beads were allowed to stir in the CaCl2 solution for about 20 minutes, and then rinsed in a dilute 5 mM CaCl2 solution. Several flasks containing 100 beads each were incubated overnight at 35° C. on a rotating shaker in a buffer solution (at pH 7) with 5 mM addition of CaCl2 to maintain the beads structure. The resulting beads diameter is about 2 mm.
The neutralizer-citrate solution was placed in the refrigerator for 2 hours, than diluted and placed on R2A agar plates using pour plate technique. The plates were incubated at 35° C. for 24-48 hours and counted. The efficacy and toxicity of the neutralizer were checked as well as a control experiment without biocide addition. Four concentrations (0.5, 1, 2.5 and 5 ppm) were tested at four different contact times (5, 15, 30, and 60 min). […] In addition, the efficacy of bromourea from chlorourea and NaBr (1:0.5 molar ratio) was tested at the same concentrations (mentioned above) and after a long contact time of 24 hours (Table 23).

[3] = test system: Pseudomonas aeruginosa (ATCC 15442); assay: Microbial efficacy (% bacteria killed) at different TOC loading against Pseudomonas aeruginosa (Example 60)
Method: Pseudomonas aeruginosa (ATCC 15442) […]
2) 1 ml of each sample was inoculated on R2A agar (pour plate method). The result stands for the bacteria count at zero time. […]
as §5, §6, §7
7) The above experiment was repeated with Pseudomonas aeruginosa ATCC 15442 (instead of using an inoculums from sludge), which is representative bacteria that form biofilms.
Microbial efficacy of different biocides against Pseudomonas aeruginosa (ATCC 15442) replacing the use activated sludge bacteria.

[4] = test system: Inoculum of bacteria (Activated sludge taken from Domestic Waste Water treatment Plant—Haifa); assay: Microbial efficacy (% kill) at different TOC loading, activated sludge inoculum (Examples 12-13); details: TOC 100 ppm, 30 min, pH 7
Method: as §1, §2, §3
Neutralization solution (NaHSO4).
The biocidal efficacy of the antifouling composition at different organic loads of 0, […], 50 and 100 ppm TOC, was examined under different biocidal concentrations (1, 2.5, and 5 ppm) at pH 7.
1) 1 ml of inoculum was added to tryptone solutions (placed in […], 100 ml each, with different concentrations of TOC-0, 10, 50 and 100 ppm).
as §4
3) For each of the tryptone concentrations (0, 10, 50, 100 ppm TOC) an inoculum of bacteria (1 ml) and the appropriate biocide concentration were added.
as §5, §6, §7

[5] = TOC 0 ppm, biocide 2.5 ppm as Cl2
[6] = TOC 0 ppm, biocide 5 ppm as Cl2
[7] = TOC 0 ppm, biocide 10 ppm as Cl2
[8] = TOC 10 ppm, biocide 2.5 ppm as Cl2
[9] = TOC 10 ppm, biocide 5 ppm as Cl2
[10] = TOC 10 ppm, biocide 10 ppm as Cl2
[11] = TOC 50 ppm, biocide 2.5 ppm as Cl2
[12] = TOC 50 ppm, biocide 5 ppm as Cl2
[13] = TOC 50 ppm, biocide 10 ppm as Cl2
[14] = biocide 0.5 ppm as Cl2, contact time 0 (initial count)
[15] = biocide 0.5 ppm as Cl2, contact time 5 min
[16] = biocide 0.5 ppm as Cl2, contact time 15 min
[17] = biocide 0.5 ppm as Cl2, contact time 30 min
[18] = biocide 0.5 ppm as Cl2, contact time 60 min
[19] = biocide 1 ppm as Cl2, contact time 0 (initial count)
[20] = biocide 1 ppm as Cl2, contact time 5 min
[21] = biocide 1 ppm as Cl2, contact time 15 min
[22] = biocide 1 ppm as Cl2, contact time 30 min
[23] = biocide 1 ppm as Cl2, contact time 60 min
[24] = biocide 2.5 ppm as Cl2, contact time 0 (initial count)
[25] = biocide 2.5 ppm as Cl2, contact time 5 min
[26] = biocide 2.5 ppm as Cl2, contact time 15 min
[27] = biocide 2.5 ppm as Cl2, contact time 30 min
[28] = biocide 2.5 ppm as Cl2, contact time 60 min
[29] = biocide 5 ppm as Cl2, contact time 0 (initial count)
[30] = biocide 5 ppm as Cl2, contact time 5 min
[31] = biocide 5 ppm as Cl2, contact time 15 min
[32] = biocide 5 ppm as Cl2, contact time 30 min
[33] = biocide 5 ppm as Cl2, contact time 60 min
[34] = TOC 100 ppm, biocide 2.5 ppm as Cl2
[35] = TOC 100 ppm, biocide 5 ppm as Cl2

## NC(=O)NCl [chlorourea]
[1]; [5]
  % bacteria killed: 56.09%
[1]; [6]
  % bacteria killed: 75.17%
[1]; [7]
  % bacteria killed: 80.46%
[1]; [8]
  % bacteria killed: 67.59%
[1]; [9]
  % bacteria killed: 72.64%
[1]; [10]
  % bacteria killed: 85.06%
[1]; [11]
  % bacteria killed: 64.37%
[1]; [12]
  % bacteria killed: 72.41%
[1]; [13]
  % bacteria killed: 78.85%
[2]; [14]
  survival of bacteria (CFU): 8.40 × 10^7 CFU
[2]; [15]
  survival of bacteria (CFU): 5.90 × 10^6 CFU
[2]; [16]
  survival of bacteria (CFU): 5.30 × 10^6 CFU
[2]; [17]
  survival of bacteria (CFU): 5.60 × 10^6 CFU
[2]; [18]
  survival of bacteria (CFU): 2.25 × 10^6 CFU
[2]; [19]
  survival of bacteria (CFU): 8.40 × 10^7 CFU
[2]; [20]
  survival of bacteria (CFU): 7.50 × 10^6 CFU
[2]; [21]
  survival of bacteria (CFU): 7.20 × 10^6 CFU
[2]; [22]
  survival of bacteria (CFU): 9.40 × 10^5 CFU
[2]; [23]
  survival of bacteria (CFU): 9.13 × 10^2 CFU
[2]; [24]
  survival of bacteria (CFU): 8.40 × 10^7 CFU
[2]; [25]
  survival of bacteria (CFU): 7.80 × 10^6 CFU
[2]; [26]
  survival of bacteria (CFU): 2.60 × 10^6 CFU
[2]; [27]
  survival of bacteria (CFU): 2.21 × 10^3 CFU
[2]; [28]
  survival of bacteria (CFU): 1.00 × 10^0 CFU
[2]; [29]
  survival of bacteria (CFU): 8.40 × 10^7 CFU
[2]; [30]
  survival of bacteria (CFU): 6.70 × 10^6 CFU
[2]; [31]
  survival of bacteria (CFU): 6.50 × 10^4 CFU
[2]; [32]
  survival of bacteria (CFU): 1.00 × 10^0 CFU
[2]; [33]
  survival of bacteria (CFU): 1.00 × 10^0 CFU
[3]; [5]
  % bacteria killed: 93.33%
[3]; [6]
  % bacteria killed: 99.33%
[3]; [7]
  % bacteria killed: 100%
[3]; [8]
  % bacteria killed: 93.77%
[3]; [9]
  % bacteria killed: 99.77%
[3]; [10]
  % bacteria killed: 100%
[3]; [11]
  % bacteria killed: 94.93%
[3]; [12]
  % bacteria killed: 99.81%
[3]; [13]
  % bacteria killed: 100%
[3]; [34]
  % bacteria killed: 94.20%
[3]; [35]
  % bacteria killed: 99.77%
[3]; biocide 10 ppm as Cl2
  % bacteria killed: 100%

## [Na+].[O-]Cl [NaOCl, reference compound]
[4]; biocide 1 ppm as Cl2
  % kill: 0%
[4]; biocide 2.5 ppm as Cl2
  % kill: 0%
[4]; biocide 5 ppm as Cl2
  % kill: 0%
[1]; TOC 0 ppm, biocide 1 ppm as Cl2
  % bacteria killed: 54.1%
[1]; [5]
  % bacteria killed: 95.5%
[1]; [6]
  % bacteria killed: 99.6%
[1]; TOC 10 ppm, biocide 1 ppm as Cl2
  % bacteria killed: 3.7%
[1]; [8]
  % bacteria killed: 34.6%
[1]; [9]
  % bacteria killed: 97.1%
[1]; TOC 50 ppm, biocide 1 ppm as Cl2
  % bacteria killed: 0%
[1]; [11]
  % bacteria killed: 12.7%
[1]; [12]
  % bacteria killed: 65.9%
[2]; [14]
  survival of bacteria (CFU): 8.00 × 10^6 CFU
[2]; [15]
  survival of bacteria (CFU): 7.90 × 10^6 CFU
[2]; [16]
  survival of bacteria (CFU): 5.65 × 10^6 CFU
[2]; [17]
  survival of bacteria (CFU): 4.72 × 10^6 CFU
[2]; [18]
  survival of bacteria (CFU): 5.00 × 10^6 CFU
[2]; [19]
  survival of bacteria (CFU): 8.00 × 10^6 CFU
[2]; [20]
  survival of bacteria (CFU): 4.40 × 10^6 CFU
[2]; [21]
  survival of bacteria (CFU): 3.30 × 10^6 CFU
[2]; [22]
  survival of bacteria (CFU): 2.15 × 10^6 CFU
[2]; [23]
  survival of bacteria (CFU): 1.20 × 10^6 CFU
[2]; [24]
  survival of bacteria (CFU): 8.00 × 10^6 CFU
[2]; [25]
  survival of bacteria (CFU): 3.60 × 10^6 CFU
[2]; [26]
  survival of bacteria (CFU): 1.83 × 10^6 CFU
[2]; [27]
  survival of bacteria (CFU): 7.60 × 10^6 CFU
[2]; [28]
  survival of bacteria (CFU): 1.95 × 10^5 CFU
[2]; [29]
  survival of bacteria (CFU): 8.00 × 10^6 CFU
[2]; [30]
  survival of bacteria (CFU): 1.74 × 10^6 CFU
[2]; [31]
  survival of bacteria (CFU): 6.80 × 10^6 CFU
[2]; [32]
  survival of bacteria (CFU): 3. × 10^6 CFU
[2]; [33]
  survival of bacteria (CFU): 1.00 × 10^0 CFU
[3]; [5]
  % bacteria killed: 100%
[3]; [6]
  % bacteria killed: 100%
[3]; [7]
  % bacteria killed: 100%
[3]; [8]
  % bacteria killed: 43.10%
[3]; [9]
  % bacteria killed: 100%
[3]; [10]
  % bacteria killed: 100%
[3]; [11]
  % bacteria killed: 17.24%
[3]; [12]
  % bacteria killed: 18.97%
[3]; [13]
  % bacteria killed: 100%
[3]; [34]
  % bacteria killed: 0%
[3]; [35]
  % bacteria killed: 27.59%
[3]; biocide 10 ppm as Cl2
  % bacteria killed: 90.86%

## NC(=O)NBr [bromourea]
[1]; [5]
  % bacteria killed: 99.14%
[1]; [6]
  % bacteria killed: 98.59%
[1]; [7]
  % bacteria killed: 99.88%
[1]; [8]
  % bacteria killed: 95.48%
[1]; [9]
  % bacteria killed: 99.64%
[1]; [10]
  % bacteria killed: 99.89%
[1]; [11]
  % bacteria killed: 7.34%
[1]; [12]
  % bacteria killed: 91.16%
[1]; [13]
  % bacteria killed: 97.69%
[3]; [5]
  % bacteria killed: 100%
[3]; [6]
  % bacteria killed: 100%
[3]; [7]
  % bacteria killed: 100%
[3]; [8]
  % bacteria killed: 100%
[3]; [9]
  % bacteria killed: 100%
[3]; [10]
  % bacteria killed: 100%
[3]; [11]
  % bacteria killed: 0%
[3]; [12]
  % bacteria killed: 99.36%
[3]; [13]
  % bacteria killed: 100%
[3]; [34]
  % bacteria killed: 0%
[3]; [35]
  % bacteria killed: 7.14%
[3]; biocide 10 ppm as Cl2
  % bacteria killed: 100%
